This is an account of results in patent publication US20100222365A1, “SUBSTITUTED TRIAZOLE DERIVIATIVES AS OXYTOCIN ANTAGONISTS” (Pfizer Inc, priority 2005, published 2010).

In general, Ki refers to the equilibrium dissociation constant of an inhibitor or competing ligand from its target.

The target of this test is T1, Oxytocin receptor (CHO-OTR/NFAT-β-Lactamase cells) (Homo sapiens, UniProt P30559).
T1 construct: expressed in transfected cells; host or cells: CHO-OTR cell line, further transfected with the NFAT-β-lactamase reporter construct
T1 sequence (P30559 1-389): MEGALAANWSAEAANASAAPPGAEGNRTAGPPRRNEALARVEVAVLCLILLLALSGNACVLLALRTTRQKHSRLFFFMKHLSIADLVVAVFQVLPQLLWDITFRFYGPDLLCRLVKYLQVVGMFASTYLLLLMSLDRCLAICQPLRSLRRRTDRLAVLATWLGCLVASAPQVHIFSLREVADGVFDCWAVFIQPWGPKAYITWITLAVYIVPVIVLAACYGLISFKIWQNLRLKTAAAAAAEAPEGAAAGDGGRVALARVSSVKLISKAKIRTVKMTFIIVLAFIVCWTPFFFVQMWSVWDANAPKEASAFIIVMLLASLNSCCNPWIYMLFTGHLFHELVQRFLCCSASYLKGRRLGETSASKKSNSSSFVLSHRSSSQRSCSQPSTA
In words: Oxytocin Receptor Beta-lactamase Assay. The class given is cell-based. The settings on record: oxytocin stimulation 4 hours, read-out: Oxytocin antagonist activity, expressed as a Ki value. How it is done:
A suitable assay for determining the Oxytocin antagonist activity of a compound is detailed herein below.
Oxytocin Receptor Beta-lactamase Assay:
Cell Culture: Cells used are CHO-OTR/NFAT-β-Lactamase. The NFAT-β-lactamase expression construct was transfected into the CHO-OTR cell line and clonal populations were isolated via fluorescence activated cell sorting (FAGS). An appropriate clone was selected to develop the assay.
Culturing cells—CHO-OTR-NFAT-βLactamase cells were grown in growth medium. Cells were harvested when they reached 80-90% confluence removing the medium and washing with pre-warmed PBS. […]
Cells grown at 80-90% confluence were harvested and counted. […]
Preparation of 1 ml of 6× Loading Buffer with Enhanced Loading Protocol (this requires scale-up according to number of plates to be screened) • 12 μl of solution A (1 mM CCF4-AM in Dry DMSO) was added to […] of solution B (100 mg/ml Pluronic-F127 in DMSO+0.1% Acetic Acid) and vortexed. • The resulting solution was added to 925 μl of solution C (24% w/w PEG400, 18% TR40 v/v in water). • 75 μl of solution D was added (200 mM probenecid in 200 mM NaOH). • 10 μl of 6× Loading Buffer was added to all wells and incubated for 1.5 hrs-2 hrs at room temperature in the dark. • The plates were read using an UL Analyst, Excitation 405 nm, Emission 450 nm and 530 nm, gain optimal, lagtime 0.40 μs integration, 4 flashes, bottom reading.

The structures appear in SMILES notation.

In the case of `COc1ccc(-n2c(C)nnc2-c2cnc(Oc3cccc(C)c3C)cn2)cn1` [Example 6], the inhibitory constant (Ki) turned out to be 5.5 nM.
